Results: publication PMC6722498, “Non-CYP2D6 Variants Selected by a GWAS Improve the Prediction of Impaired Tamoxifen Metabolism in Patients with Breast Cancer” (Journal of Clinical Medicine, 2019)
“And” between values parts separate entries of the source, which are not always exact repeats. Identical values can stand only once. Like-named read-outs stand apart in the source and are kept apart here. Each block holds one compound with its values, some of them ahead of it.

Assays:
estrogen receptor (ER) = tested on: estrogen receptor (ER); design: method as in PMID 15111773, PMID 16690721, PMID 21451508; conditions: fold higher; cited from earlier work
breast cancer = conditions: cited from earlier work
[1] = design: method as in PMID 26232141; conditions: simple linear regression; corresponds to predefined 6 ng mL^−1 (Z)-endoxifen threshold; cited from earlier work
[2] = design: method as in PMID 26232141; conditions: Polish women with fully active CYP2D6 (NM/NM); tamoxifen 20 mg daily; cited from earlier work
[3] = Metabolic ratio (MR): (Z)-endoxifen plasma concentration divided by the sum of concentrations of tamoxifen and other measured metabolites; assay type: in vivo, human; conditions: for Metabolic Ratio of (Z)-endoxifen, Mean ± SD: tamoxifen 20 mg daily, plasma; for Metabolic ratio (MR): individual tamoxifen-treated breast cancer patient samples
Excerpt: We previously reported that the CYP2D6 genotype accounts for 51% of the variability in tamoxifen metabolism directed toward endoxifen production, expressed as the metabolic ratio (MR) of (Z)-endoxifen (the major isomer of endoxifen produced from tamoxifen) plasma concentration divided by the sum of concentrations of tamoxifen and other measured metabolites. The metabolic ratio is more useful than (Z)-endoxifen concentration alone, because it accounts for omitted drug doses or the concomitant use of CYP2D6 inhibitors. Using simple linear regression, we estimated that an MR value of 0.0146 corresponds to the predefined 6 ng mL^−1 (Z)-endoxifen efficacy threshold level. Here, we adopted a genome-wide association study (GWAS) approach to search for new DNA variants that could assist in the prediction of impaired tamoxifen metabolism in Polish patients with breast cancer treated with the standard daily dose (20 mg).
(§1) Between May 2012 and June 2014, 293 patients were recruited for a study of CYP2D6 genotype association with plasma concentrations of tamoxifen and its metabolites. Details of the inclusion criteria, study protocol, genotyping and mass spectrometry (MS) methodology, and primary results were reported previously. Briefly, all patients were Polish Caucasians, unselected women with verified hormone receptor-positive breast cancer (median age at diagnosis: 55 years; range: 25–95 years) receiving the standard treatment of 20 mg of tamoxifen daily for at least 1 month to ensure the steady-state plasma concentration of tested compounds. The median time between the initiation of tamoxifen treatment and blood sample collection was 21.5 months. Six patients had plasma drug concentrations <10% of the mean tamoxifen level across all patients and were excluded from further analyses.
(§2) As previously described, whole blood samples were collected at study enrollment, and plasma was immediately separated and stored at −80 °C until ultraperformance liquid chromatography tandem MS (UPLC-MS/MS) analysis. For all samples, plasma concentrations of tamoxifen and its 14 key metabolites were measured, including the following: NDM-Tam, (Z)-endoxifen, (E)-endoxifen, 3-OH-NDM-Tam, 4′-OH-NDM-Tam, (Z)-4-OH-Tam, 3-OH-Tam, 4′-OH-Tam, (Z)-α-OH-Tam, (E)-α-OH-Tam, Tam-N-oxide, Tam-N-β-D-glucuronide (Tam-N-gluc), (E/Z)-4-OH-NDM-Tam-β-D-glucuronide ((E/Z)-4-OH-NDM-Tam-gluc), and (E)-4-OH-Tam-O-β-D-glucuronide ((E)-4-OH-Tam-O-gluc). All of the above compounds and deuterated internal standards (Tam-d5, NDM-Tam-d5, and (Z)-4-OH-Tam-d5) were from Toronto Research Chemicals (North York, ON, Canada). Details of the sample preparation method, MS/MS parameters, and linearity ranges of the metabolite standards are included in File S1.
Genomic DNA samples extracted from blood were genotyped for CYP2D6 alleles, according to the nomenclature described at https://www.parmvar.org/gene/CYP2D6 [10], as previously reported. Briefly, individual TaqMan allelic discrimination assays were performed for 11 SNPs, and 3 TaqMan Gene Copy Number Assays were conducted to assess gene deletion or duplication (Thermo Fisher, Waltham, MA, USA). Each CYP2D6 allele was assigned to one of four phenotypic categories, according to its associated enzyme function. PM (nonfunctional) alleles included CYP2D6*3, *4, *5, *6, and *7; IM (reduced-function) alleles were CYP2D6*9, *10, *17, and *41; NM (WT; fully functional) alleles included CYP2D6*1 and *2; and UM (increased-function) alleles were duplicates of NM variants, such as CYP2D6*1XN and *2XN. For the current study, patients were categorized into two groups of CYP2D6 functional activity: 1) Impaired metabolizers, who were presumed to have impaired metabolism of tamoxifen toward endoxifen (with CYP2D6 diplotypes PM/PM, IM/PM, IM/IM, NM/PM, and NM/IM), and 2) normal metabolizers, with predicted therapeutically effective tamoxifen metabolism (carrying CYP2D6 diplotypes NM/NM and NM/UM).

[4] = Steady-state plasma concentration of (Z)-endoxifen (UPLC-MS/MS) in tamoxifen-treated breast cancer patients; assay type: in vivo, human; conditions: tamoxifen 20 mg daily
Excerpt: as §1, §2
Sample preparation was carried out as described by Dahmane et al., with slight modifications, including protein precipitation by acetonitrile. Briefly, 100 µl of plasma was mixed with 300 µl of ISs solution (3.3 ng/ml of Tam-d5, 3.3 ng/ml of NDM-Tam-d5 and 4.2 ng/ml of (Z)-4-OH-Tam-d5) in acetonitrile. After vortexing and centrifugation (10 min; 18,000× g), 350 µl of clear supernatant was evaporated under nitrogen in 55°C. Finally, samples were dissolved in 100 µl of 10 mM ammonium formate in 50% methanol.
For sample separation, an Acquity UPLC system equipped with Acquity BEH Shield RP18 column (100 × 2.1 mm, 1.7 µm particle size) (Waters, Milford, MA, USA) was used. The column was thermostatted at 70°C. The mobile phase A consisted of ultrapure water, and phase B consisted of 0.1% formic acid in acetonitrile. The flow rate was 0.6 ml/min and the total run time was 16 min per sample under nonlinear gradient condition as follows: 10% to 80% B for 12 min (concave curve), 80% B for 2 min, 95% B for 1 min and 10% B for 1 min.
Detection was performed on a triple quadrupole mass spectrometer Xevo TQ-MS (Waters) in the positive ion electrospray ionization mode, with general mass spectrometry (MS) parameters as follows: capillary voltage, 3 kV; desolvation temperature, 550°C; desolvation gas (nitrogen) flow, 1000 l/h; cone gas (nitrogen) flow, 100 l/h and collision gas (argon) flow, 0.15 ml/min. Waters QuanLynx software was used for chromatograms integration and quantitation.
All compounds were divided between two calibration sets, A and B (Table 1), based on characteristic ions and retention times. Each set consisted of six calibration samples (CAL1 to CAL6) prepared by spiking blank plasma sample by an appropriate amount of analyte. The calibration range was chosen based on others’ published data, expected steady-state plasma metabolite concentration and our previous measurements. Linear calibration curves were obtained by plotting response (obtained by dividing peak area of analyte by peak area of internal standard) against calibration point of known concentration. […]

Compound: 4-hydroxy-tamoxifen [4-OH-Tam]
antiestrogenic potency relative to other tamoxifen metabolites and the parent drug (estrogen receptor (ER)): up to 100 fold

Compound: CC/C(=C(\c1ccc(O)cc1)c1ccc(OCCNC)cc1)c1ccccc1 [endoxifen, 4-hydroxy-N-desmethyl-tamoxifen]
antiestrogenic potency relative to other tamoxifen metabolites and the parent drug (estrogen receptor (ER)): up to 100 fold
minimal threshold level of endoxifen to achieve the desired treatment efficacy (breast cancer; large retrospective study, lowest quintile): > 5.97 ng/mL
lower breast cancer recurrence rate relative to patients with lower endoxifen concentrations (breast cancer; patients with endoxifen concentration >5.97 ng mL^−1): 26%
endoxifen efficacy threshold level (breast cancer; ref 30): 5.3 ng/mL
endoxifen efficacy threshold level (breast cancer; ref 32): 3.36 ng/mL

Metabolic Ratio of (Z)-endoxifen, Mean ± SD ([3]; CYP2D6 genotype IM/IM (n=3)): 0.0063 ± 0.0022
Metabolic Ratio of (Z)-endoxifen, Mean ± SD ([3]; CYP2D6 genotype IM/PM (n=12)): 0.0047 ± 0.0014
Metabolic Ratio of (Z)-endoxifen, Mean ± SD ([3]; CYP2D6 genotype NM/IM (n=44)): 0.0125 ± 0.0054
Metabolic Ratio of (Z)-endoxifen, Mean ± SD ([3]; CYP2D6 genotype NM/NM (n=90)): 0.0185 ± 0.0057
Metabolic Ratio of (Z)-endoxifen, Mean ± SD ([3]; CYP2D6 genotype NM/PM (n=99)): 0.0108 ± 0.0043
Metabolic Ratio of (Z)-endoxifen, Mean ± SD ([3]; CYP2D6 genotype NM/UM (n=18)): 0.0201 ± 0.0076
Metabolic Ratio of (Z)-endoxifen, Mean ± SD ([3]; CYP2D6 genotype PM/PM (n=21)): 0.0037 ± 0.0013
(Z)-endoxifen steady-state plasma concentration, Mean ± SD ([4]; CYP2D6 genotype IM/IM (n=3)): 3.05 ± 1.91 ng/mL
(Z)-endoxifen steady-state plasma concentration, Mean ± SD ([4]; CYP2D6 genotype IM/PM (n=12)): 2.22 ± 0.87 ng/mL
(Z)-endoxifen steady-state plasma concentration, Mean ± SD ([4]; CYP2D6 genotype NM/IM (n=44)): 5.60 ± 3.26 ng/mL
(Z)-endoxifen steady-state plasma concentration, Mean ± SD ([4]; CYP2D6 genotype NM/NM (n=90)): 7.26 ± 3.18 ng/mL
(Z)-endoxifen steady-state plasma concentration, Mean ± SD ([4]; CYP2D6 genotype NM/PM (n=99)): 4.85 ± 2.46 ng/mL
(Z)-endoxifen steady-state plasma concentration, Mean ± SD ([4]; CYP2D6 genotype NM/UM (n=18)): 6.96 ± 3.75 ng/mL
(Z)-endoxifen steady-state plasma concentration, Mean ± SD ([4]; CYP2D6 genotype PM/PM (n=21)): 1.79 ± 0.66 ng/mL
Compound: CC/C(=C(\c1ccc(O)cc1)c1ccc(OCCNC)cc1)c1ccccc1 [(Z)-endoxifen, (Z)-4-hydroxy-N-desmethyl-tamoxifen]
MR value corresponding to the (Z)-endoxifen efficacy threshold level [1]: 0.0146
proportion of patients not achieving the beneficial threshold level of plasma (Z)-endoxifen [2]: over 30%
Metabolic ratio (MR) ([3]; CYP2D6 genotype IM/PM): 0.00274 and 0.00459 and 0.0029 and 0.00363
Metabolic ratio (MR) ([3]; CYP2D6 genotype NM/IM): 0.00647 and 0.0081 and 0.00839 and 0.01209 and 0.0056 and 0.01085 and 0.0096 and 0.00997 and 0.01604
Metabolic ratio (MR) ([3]; CYP2D6 genotype NM/NM): 0.01773 and 0.01628 and 0.0192 and 0.02007 and 0.01314 and 0.01689 and 0.01957 and 0.01357 and 0.0089 and 0.01713 and 0.01204 and 0.01768 and 0.01853 and 0.01753 and 0.01866 and 0.01752 and 0.01504 and 0.00404 and 0.01279 and 0.01592 and 0.01076 and 0.01005 and 0.01645
Metabolic ratio (MR) ([3]; CYP2D6 genotype NM/PM): 0.01496 and 0.01155 and 0.00944 and 0.00815 and 0.01001 and 0.01495 and 0.00803 and 0.01657 and 0.01419 and 0.01098 and 0.0072 and 0.00801 and 0.01175 and 0.00523 and 0.00652 and 0.00522 and 0.00788 and 0.00603 and 0.00607 and 0.00605 and 0.01073
Metabolic ratio (MR) ([3]; CYP2D6 genotype NM/UM): 0.013 and 0.01894 and 0.02933 and 0.01233
Metabolic ratio (MR) ([3]; CYP2D6 genotype PM/PM): 0.00294 and 0.00405 and 0.0035 and 0.00163
